Assay results from article PMC4051630, “A Comparison of Protein Kinases Inhibitor Screening Methods Using Both Enzymatic Activity and Binding Affinity Determination” (PLoS ONE, 2014).

Experiments:
Assay in all cases: Differential Scanning Fluorimetry (DSF) Tm shift
Assay type in all cases: binding
FES Catalytic Domain = molecular target: T1, FES Catalytic Domain (Homo sapiens, UniProt P07332); details: 2 µM protein, 10 µM inhibitor, average of 3 experiments, each in duplicate
T1 construct: For all of them, we expressed and purified the catalytic domain separately; His-tag; made in house; host or cells: Escherichia coli
T1 sequence (P07332 561-822 limits assumed): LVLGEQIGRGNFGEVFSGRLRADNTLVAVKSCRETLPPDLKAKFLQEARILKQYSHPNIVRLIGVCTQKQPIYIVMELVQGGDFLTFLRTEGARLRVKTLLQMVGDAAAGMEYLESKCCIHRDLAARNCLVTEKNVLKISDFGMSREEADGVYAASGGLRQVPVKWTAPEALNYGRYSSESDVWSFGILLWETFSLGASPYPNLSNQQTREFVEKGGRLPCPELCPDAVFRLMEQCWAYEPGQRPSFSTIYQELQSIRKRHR

[1] = molecular target: SRC Catalytic Domain+SH2+SH3 (Homo sapiens, UniProt P12931); details: 2 µM protein, 10 µM inhibitor, average of 3 experiments, each in duplicate
Chain of SRC Catalytic Domain+SH2+SH3 (P12931 84-523 limits assumed): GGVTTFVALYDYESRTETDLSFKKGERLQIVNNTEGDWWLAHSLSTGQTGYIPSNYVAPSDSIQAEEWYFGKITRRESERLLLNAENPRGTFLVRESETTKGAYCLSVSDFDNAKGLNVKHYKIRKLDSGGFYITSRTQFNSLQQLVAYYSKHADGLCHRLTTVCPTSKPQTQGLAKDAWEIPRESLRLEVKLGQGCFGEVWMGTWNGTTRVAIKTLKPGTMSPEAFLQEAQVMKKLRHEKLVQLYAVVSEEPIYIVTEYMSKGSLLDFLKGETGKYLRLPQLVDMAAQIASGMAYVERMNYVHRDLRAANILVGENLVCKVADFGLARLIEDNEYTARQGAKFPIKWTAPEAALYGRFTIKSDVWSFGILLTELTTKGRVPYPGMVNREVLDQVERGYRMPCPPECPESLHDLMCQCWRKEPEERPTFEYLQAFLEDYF

STK3 Catalytic Domain = molecular target: T2, STK3 Catalytic Domain (Homo sapiens, UniProt Q13188); details: 2 µM protein, 10 µM inhibitor, average of 3 experiments, each in duplicate
T2 construct: For all of them, we expressed and purified the catalytic domain separately; His-tag; made in house; host or cells: Escherichia coli
T2 sequence (Q13188 27-278 limits assumed): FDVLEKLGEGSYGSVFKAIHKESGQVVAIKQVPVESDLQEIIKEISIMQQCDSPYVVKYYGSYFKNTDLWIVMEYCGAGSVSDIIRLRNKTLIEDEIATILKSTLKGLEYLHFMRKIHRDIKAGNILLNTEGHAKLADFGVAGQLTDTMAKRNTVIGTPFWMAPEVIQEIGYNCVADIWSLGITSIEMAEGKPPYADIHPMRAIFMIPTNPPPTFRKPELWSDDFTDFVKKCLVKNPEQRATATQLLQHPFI

SRC Catalytic Domain = SRC Catalytic Domain (Homo sapiens, UniProt P12931); design: For all of them, we expressed and purified the catalytic domain separately; His-tag; made in house; host or cells: Escherichia coli; details: 2 µM protein, 10 µM inhibitor, average of 3 experiments, each in duplicate
Chain of SRC Catalytic Domain (P12931 270-523 limits assumed): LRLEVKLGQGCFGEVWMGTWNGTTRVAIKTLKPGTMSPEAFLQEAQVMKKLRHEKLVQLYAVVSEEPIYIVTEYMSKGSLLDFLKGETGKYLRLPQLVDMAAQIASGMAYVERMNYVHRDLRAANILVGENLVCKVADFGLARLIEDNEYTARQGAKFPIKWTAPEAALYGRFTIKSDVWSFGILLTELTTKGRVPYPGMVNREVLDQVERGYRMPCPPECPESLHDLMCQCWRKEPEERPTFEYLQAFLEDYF

CDK2 + Cyclin A = molecular target: T3, CDK2 + Cyclin A (Homo sapiens, UniProt P24941); details: CDK2 + Cyclin A; 2 µM protein, 10 µM inhibitor; average of 3 experiments, each in duplicate
T3 construct: CDK2 (P24941); 1–299; His-tag; made in house; host or cells: Escherichia coli

FES Catalytic Domain+SH2 = molecular target: T4, FES Catalytic Domain+SH2 (Homo sapiens, UniProt P07332); details: 2 µM protein, 10 µM inhibitor, average of 3 experiments, each in duplicate
T4 construct: for 8, we also made a longer version containing one or more additional domains; His-tag; made in house; host or cells: Escherichia coli
T4 sequence (P07332 448-822 limits assumed): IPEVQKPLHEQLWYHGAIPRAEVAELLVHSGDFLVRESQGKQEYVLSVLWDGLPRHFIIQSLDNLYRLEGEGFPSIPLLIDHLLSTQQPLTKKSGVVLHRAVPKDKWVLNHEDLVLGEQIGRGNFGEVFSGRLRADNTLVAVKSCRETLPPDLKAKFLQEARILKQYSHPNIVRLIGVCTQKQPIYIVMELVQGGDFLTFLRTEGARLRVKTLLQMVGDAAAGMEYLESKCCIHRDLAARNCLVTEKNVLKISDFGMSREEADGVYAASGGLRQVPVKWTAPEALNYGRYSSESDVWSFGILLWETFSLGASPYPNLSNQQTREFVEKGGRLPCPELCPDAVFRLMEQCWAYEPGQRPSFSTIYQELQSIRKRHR

DMPK Catalytic Domain = molecular target: T5, DMPK Catalytic Domain (Homo sapiens, UniProt Q09013); details: 2 µM protein, 10 µM inhibitor, average of 3 experiments, each in duplicate
T5 construct: For all of them, we expressed and purified the catalytic domain separately; His-tag; made in house; host or cells: Escherichia coli
T5 sequence (Q09013 71-339 limits assumed): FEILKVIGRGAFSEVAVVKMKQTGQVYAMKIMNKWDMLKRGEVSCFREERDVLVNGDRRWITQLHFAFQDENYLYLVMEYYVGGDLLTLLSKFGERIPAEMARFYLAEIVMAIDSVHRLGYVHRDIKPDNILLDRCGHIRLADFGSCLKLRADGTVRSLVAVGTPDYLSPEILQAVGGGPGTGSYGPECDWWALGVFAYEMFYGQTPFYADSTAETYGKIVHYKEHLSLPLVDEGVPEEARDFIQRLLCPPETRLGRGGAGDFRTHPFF

PAK4 Catalytic Domain = molecular target: T6, PAK4 Catalytic Domain (Homo sapiens, UniProt O96013); details: 2 µM protein, 10 µM inhibitor, average of 3 experiments, each in duplicate
T6 construct: For all of them, we expressed and purified the catalytic domain separately; His-tag; made in house; host or cells: Escherichia coli
T6 sequence (O96013 321-572 limits assumed): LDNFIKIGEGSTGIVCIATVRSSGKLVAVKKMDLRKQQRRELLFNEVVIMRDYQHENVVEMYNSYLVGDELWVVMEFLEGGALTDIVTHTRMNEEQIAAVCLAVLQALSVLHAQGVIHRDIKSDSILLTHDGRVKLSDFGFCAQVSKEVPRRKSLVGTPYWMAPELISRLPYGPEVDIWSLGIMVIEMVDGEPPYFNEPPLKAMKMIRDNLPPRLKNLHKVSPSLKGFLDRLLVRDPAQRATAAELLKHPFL

[2] = molecular target: T7, PAK4 Catalytic Domain+PBD (Homo sapiens, UniProt O96013); details: 2 µM protein, 10 µM inhibitor, average of 3 experiments, each in duplicate
T7 construct: for 8, we also made a longer version containing one or more additional domains; His-tag; made in house; host or cells: Escherichia coli
T7 sequence (O96013 whole entry, the tested form may be a part): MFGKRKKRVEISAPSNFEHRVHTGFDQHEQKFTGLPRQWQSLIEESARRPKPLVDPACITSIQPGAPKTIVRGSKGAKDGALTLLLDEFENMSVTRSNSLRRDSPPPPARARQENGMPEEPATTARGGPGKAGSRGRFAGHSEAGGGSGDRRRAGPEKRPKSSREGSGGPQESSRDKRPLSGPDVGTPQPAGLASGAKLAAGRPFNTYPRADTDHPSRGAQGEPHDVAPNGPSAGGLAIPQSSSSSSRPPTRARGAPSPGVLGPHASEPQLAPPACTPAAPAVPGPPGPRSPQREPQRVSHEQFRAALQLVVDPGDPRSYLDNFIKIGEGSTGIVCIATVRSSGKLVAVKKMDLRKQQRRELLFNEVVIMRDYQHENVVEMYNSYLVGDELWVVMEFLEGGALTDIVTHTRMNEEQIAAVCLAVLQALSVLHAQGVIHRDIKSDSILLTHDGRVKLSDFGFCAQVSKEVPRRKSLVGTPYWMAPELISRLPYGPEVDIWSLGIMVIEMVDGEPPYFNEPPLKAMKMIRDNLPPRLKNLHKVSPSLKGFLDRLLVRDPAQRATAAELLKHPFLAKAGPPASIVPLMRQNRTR

AKT3 Catalytic Domain = molecular target: T8, AKT3 Catalytic Domain (Homo sapiens, UniProt Q9Y243); details: 2 µM protein, 10 µM inhibitor, average of 3 experiments, each in duplicate
T8 construct: AKT3 (Q9Y243); CD; His-tag; made in house; host or cells: Escherichia coli
T8 sequence (Q9Y243 122-479): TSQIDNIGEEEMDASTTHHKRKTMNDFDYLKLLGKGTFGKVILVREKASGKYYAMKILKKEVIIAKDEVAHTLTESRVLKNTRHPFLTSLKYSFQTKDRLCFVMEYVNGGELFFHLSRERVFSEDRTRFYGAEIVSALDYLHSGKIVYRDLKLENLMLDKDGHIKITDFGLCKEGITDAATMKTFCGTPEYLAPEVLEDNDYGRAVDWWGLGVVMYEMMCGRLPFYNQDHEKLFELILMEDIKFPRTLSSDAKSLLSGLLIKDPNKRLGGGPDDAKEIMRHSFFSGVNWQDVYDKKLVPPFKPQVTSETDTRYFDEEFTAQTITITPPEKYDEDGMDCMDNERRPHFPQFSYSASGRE

FAK2 Catalytic Domain = molecular target: T9, FAK2 Catalytic Domain (Homo sapiens, UniProt Q14289); details: 2 µM protein, 10 µM inhibitor, average of 3 experiments, each in duplicate
T9 construct: For all of them, we expressed and purified the catalytic domain separately; His-tag; made in house; host or cells: Escherichia coli
T9 sequence (Q14289 425-683 limits assumed): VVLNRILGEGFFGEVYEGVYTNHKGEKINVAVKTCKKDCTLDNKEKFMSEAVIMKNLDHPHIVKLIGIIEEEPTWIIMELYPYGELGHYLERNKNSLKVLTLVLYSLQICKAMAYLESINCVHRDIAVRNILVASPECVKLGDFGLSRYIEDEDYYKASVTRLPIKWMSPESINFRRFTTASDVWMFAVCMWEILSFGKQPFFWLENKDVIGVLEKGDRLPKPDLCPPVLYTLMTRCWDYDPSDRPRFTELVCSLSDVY

[3] = molecular target: T10, STK3 Catalytic domain+SARAH (Homo sapiens, UniProt Q13188); details: 2 µM protein, 10 µM inhibitor, average of 3 experiments, each in duplicate
T10 construct: for 8, we also made a longer version containing one or more additional domains; His-tag; made in house; host or cells: Escherichia coli
T10 sequence (Q13188 1-491): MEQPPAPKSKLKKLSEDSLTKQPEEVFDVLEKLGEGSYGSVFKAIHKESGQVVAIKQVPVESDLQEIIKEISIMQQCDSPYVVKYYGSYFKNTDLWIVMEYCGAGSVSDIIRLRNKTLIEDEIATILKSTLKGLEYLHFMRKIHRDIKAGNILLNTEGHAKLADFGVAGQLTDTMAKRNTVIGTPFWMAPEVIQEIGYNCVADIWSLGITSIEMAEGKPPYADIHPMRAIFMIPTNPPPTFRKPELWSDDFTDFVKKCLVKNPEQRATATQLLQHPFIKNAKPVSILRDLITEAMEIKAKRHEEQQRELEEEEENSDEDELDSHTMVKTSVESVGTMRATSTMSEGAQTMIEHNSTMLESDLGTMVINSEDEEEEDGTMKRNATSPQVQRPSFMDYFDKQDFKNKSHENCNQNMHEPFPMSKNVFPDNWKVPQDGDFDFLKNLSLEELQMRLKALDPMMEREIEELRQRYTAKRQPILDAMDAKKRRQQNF

PAK7 Catalytic Domain = molecular target: T11, PAK7 Catalytic Domain (Homo sapiens, UniProt Q9P286); details: 2 µM protein, 10 µM inhibitor, average of 3 experiments, each in duplicate
T11 construct: For all of them, we expressed and purified the catalytic domain separately; His-tag; made in house; host or cells: Escherichia coli
T11 sequence (Q9P286 449-700 limits assumed): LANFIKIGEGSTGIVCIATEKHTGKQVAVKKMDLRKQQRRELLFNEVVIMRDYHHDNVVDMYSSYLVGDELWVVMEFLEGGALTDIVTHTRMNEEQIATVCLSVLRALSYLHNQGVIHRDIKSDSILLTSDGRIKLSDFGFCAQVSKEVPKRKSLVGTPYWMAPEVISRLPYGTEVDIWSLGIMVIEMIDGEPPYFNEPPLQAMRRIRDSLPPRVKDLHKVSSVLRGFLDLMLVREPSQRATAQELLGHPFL

CHK2 Catalytic Domain = molecular target: T12, CHK2 Catalytic Domain (Homo sapiens, UniProt O96017); details: 2 µM protein, 10 µM inhibitor, average of 3 experiments, each in duplicate
T12 construct: For all of them, we expressed and purified the catalytic domain separately; His-tag; made in house; host or cells: Escherichia coli
T12 sequence (O96017 220-486 limits assumed): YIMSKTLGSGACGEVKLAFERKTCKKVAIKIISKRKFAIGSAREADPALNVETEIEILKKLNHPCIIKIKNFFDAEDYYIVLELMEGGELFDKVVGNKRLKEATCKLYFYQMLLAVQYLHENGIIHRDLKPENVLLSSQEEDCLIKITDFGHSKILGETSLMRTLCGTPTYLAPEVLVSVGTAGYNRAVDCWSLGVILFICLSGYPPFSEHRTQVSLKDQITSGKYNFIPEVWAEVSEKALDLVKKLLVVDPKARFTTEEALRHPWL

CDK2 + Cyclin E = molecular target: T13, CDK2 + Cyclin E (Homo sapiens, UniProt P24941); details: CDK2 + Cyclin E; 2 µM protein, 10 µM inhibitor; average of 3 experiments, each in duplicate
T13 construct: CDK2 (P24941); 1–299; His-tag; made in house; host or cells: Escherichia coli

| Compound | Melting temperature (Tm) shift (FES Catalytic Domain) [degrees Celcius] | Melting temperature (Tm) shift [1] [degrees Celcius] | Melting temperature (Tm) shift (STK3 Catalytic Domain) [degrees Celcius] | Melting temperature (Tm) shift (SRC Catalytic Domain) [degrees Celcius] | Melting temperature (Tm) shift (CDK2 + Cyclin A) [degrees Celcius] | Melting temperature (Tm) shift (FES Catalytic Domain+SH2) [degrees Celcius] | Melting temperature (Tm) shift (DMPK Catalytic Domain) [degrees Celcius] | Melting temperature (Tm) shift (PAK4 Catalytic Domain) [degrees Celcius] | Melting temperature (Tm) shift [2] [degrees Celcius] | Melting temperature (Tm) shift (AKT3 Catalytic Domain) [degrees Celcius] | Melting temperature (Tm) shift (FAK2 Catalytic Domain) [degrees Celcius] | Melting temperature (Tm) shift [3] [degrees Celcius] | Melting temperature (Tm) shift (PAK7 Catalytic Domain) [degrees Celcius] | Melting temperature (Tm) shift (CHK2 Catalytic Domain) [degrees Celcius] | Melting temperature (Tm) shift (CDK2 + Cyclin E) [degrees Celcius] |
| --- | --- | --- | --- | --- | --- | --- | --- | --- | --- | --- | --- | --- | --- | --- | --- |
| O=C(Nc1cccc(Nc2nccc(Nc3cccc(C(F)(F)F)c3)n2)c1)C1CC1 [Aurora Kinase Inhibitor III] | 0.2 | 0.0 | 0.1 | 0.2 | 0.2 | 0.3 | 0.9 | 0.8 | 1.1 | 0.1 | 0.2 | 0.4 | 0.0 | 0.4 | – |
| COc1cc2ncnc(Nc3ccc(NC(=O)c4ccccc4)cc3)c2cc1OC [Aurora Kinase Inhibitor II] | 0.1 | 0.4 | 0.9 | 0.7 | 0.1 | 0.2 | 0.1 | – | 0.1 | 0.1 | 0.3 | 0.4 | – | 7.0 | – |
| Cc1cc(Nc2nc(-c3ccccc3)nc3ccccc23)n[nH]1 [GSK-3 Inhibitor XIII] | 1.0 | 1.6 | 3.7 | 1.3 | 0.3 | 0.2 | 0.5 | 3.0 | 0.8 | 0.2 | 0.8 | 0.9 | 2.0 | 1.9 | – |
| O=C1NC(=O)C(=Cc2ccc(-c3ccc(F)cc3O)o2)S1 [PI 3-Kγ/CKII Inhibitor] | – | 0.1 | 0.3 | 0.0 | 0.2 | 0.5 | 0.3 | 0.9 | 1.3 | – | 0.1 | 0.5 | – | 2.5 | 0.2 |
| O=C1NC(=O)C(c2cn(CCCn3ccnc3)c3ccccc23)=C1Nc1ccccc1 [PKCb Inhibitor] | 0.4 | – | 0.3 | 0.1 | 0.5 | – | 1.6 | – | – | – | – | 1.7 | 0.0 | 2.0 | 0.0 |
| CCN(CC)CCNC(=O)c1c(C)[nH]c(/C=C2\C(=O)Nc3ccc(Cl)cc32)c1C [SU11652] | 2.8 | 0.5 | – | 1.2 | 0.6 | 0.9 | 1.9 | 2.8 | 2.0 | – | 1.3 | 3.8 | – | 4.8 | 0.5 |
| COc1cc2ncnc(Nc3ccc(Oc4ccccc4)cc3)c2cc1OC [Src Kinase Inhibitor I] | 0.1 | 1.6 | 0.3 | 2.1 | 0.0 | 0.1 | 0.7 | – | – | – | 0.6 | 0.1 | 0.0 | 3.0 | 0.2 |
